Test in all cases: NCI tumour cell line growth inhibition, 48 h
The subject of assay [1] is SK-MEL-2 melanoma.
The test system of assay [2] is EKVX NSCLC.
Assay [3] concerns MALME-3M melanoma.
The test system of assay [4] is MDA-MB-231 breast.
The subject of assay [5] is KM12 colon.
The test system of assay [6] is OVCAR-3 ovarian.
Assay [7] relates to SF-539 CNS.
In assay [8] the test system is NCI-H23 lung.
For assay [9], the system named is SNB-75 CNS.
Assay [10] concerns DU-145 prostate.

Results on nine compounds are retold here after PubChem BioAssay (NCI).

Where “and” joins values, the source holds several entries; their conditions need not be identical. Equal values may be shown once.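 Protocol summary: plate cells (96-well), add compound at 5 concentrations, incubate 48 h, interpolate endpoints linearly. GI50 = concentration required for 50% inhibition of growth. TGI: total growth inhibition.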

Consider `CC(=O)OC1CC[C@@]2(C)C(CC[C@]3(C)C2CC=C2[C@@H]4CC(C)(C)CCC4(C)CCC23C)[C@@]1(C)C(=O)O` (stereo partly specified), for which the TGI in [1] was 38.6 µM; in assay [2] it was 39.5 µM; in assay [3], 47.1 µM; in assay [4] it was 44.2 µM; in assay [5], 52.3 µM; in assay [6], 37.7 µM. The TGI in assay [7] came out at 50.7 µM; in assay [8], 43.9 µM; in [9] it was 48.9 µM; in assay [10], 46 µM.

For `O=C1c2cc(-c3ccccc3)ccc2-c2c1c1ccc([N+](=O)[O-])cc1c(=O)n2CCCBr`, the GI50 was > 50 µM in [1]; > 50 µM in assay [2]; > 38.9 µM in assay [4]; > 50 µM in [5]; > 50 µM in assay [6]; > 28.7 µM in assay [7]. Besides, the GI50 is > 50 µM in assay [8], 15.1 µM in assay [9] and > 50 µM in assay [10]. Also, the TGI in assay [1] is > 50 µM; in assay [2] it was > 50 µM; in assay [3] it was > 43.4 µM; in assay [4], > 50 µM; in assay [5], > 50 µM; in [6], > 50 µM. Also, the TGI in assay [7] was > 50 µM; in assay [8], > 50 µM; in [9], > 26.2 µM; in assay [10] it was > 50 µM.

Take `CCCCOC(=O)c1ccc(NC(=O)CCl)cc1`: the GI50 in assay [1] is 4.89 µM; in assay [2] it was 2.37 µM; in [3], 1.76 µM; in [4], 1.63 µM; in [5] it was 2.07 µM; in assay [6], 1.7 µM. The GI50 is 1.7 µM in assay [7], 2.4 µM in assay [8], 1.86 µM in assay [9] and 1.81 µM in assay [10]. For the same compound, the TGI in assay [1] was 15.9 µM; in assay [2], 7.13 µM; in assay [3], 3.68 µM; in [4], 3.26 µM; in assay [5] it was 4.52 µM; in assay [6], 3.3 µM. Moreover, the TGI in [7] turned out to be 3.18 µM; in assay [8] it was 7.47 µM; in assay [9], 5.96 µM; in assay [10] it was 3.26 µM.

With `COc1ccc2nc(NCN3C(=O)c4ccccc4C3=O)sc2c1`, the TGI in assay [1], in [2], in assay [3], in assay [4], in assay [5] and in assay [6] was > 100 µM in each case. In addition, the TGI in assay [7], in [8], in assay [9] and in [10] was > 100 µM throughout.

`CSc1n(Cc2ccc3ccccc3c2)c(C)c[n+]1Cc1ccc2ccccc2c1`: the GI50 in assay [1] is 0.486 µM; in assay [2] it was 1.4 µM; in assay [3], 0.472 µM; in assay [4] it was 0.484 µM; in assay [5] it was 0.593 µM; in assay [6], 0.445 µM. Moreover, the GI50 in [7] was 0.797 µM; in assay [8], 0.385 µM; in assay [9], 0.342 µM; in [10], 1.07 µM. In addition, the TGI stood at 1.73 µM in assay [1]; 3.83 µM in assay [2]; 1.73 µM in assay [3]; 1.74 µM in [4]; 1.96 µM in [5]; 1.63 µM in assay [6]. The TGI in assay [7] came out at 2.12 µM; in [8], 1.64 µM; in [9], 1.49 µM; in assay [10], 2.39 µM.

Take `Clc1ccc(C(c2ccc(Cl)cc2)N2CCNCC2)cc1`: the TGI came to 3.63 µM in assay [1]; 10.4 µM in assay [2]; 3.12 µM in [3]; 4.4 µM in assay [4]; 3.63 µM in assay [5]; 4.13 µM in assay [6]. Also, the TGI was determined as 3.02 µM in [7], 21.6 µM in [8], 5.78 µM in assay [9] and 7.07 µM in [10].

Consider `OC(C1CO1)C(O)C1CO1` (stereo unspecified), for which the GI50 is 137 µM in assay [1]; 175 µM in [2]; 63 µM in assay [4]; 101 µM in assay [6]; 36.4 µM in [8]; 32.2 µM in assay [9]. Also, the GI50 in [10] was 6.7 µM. Also, the TGI in assay [1] was 116 µM and 345 µM; in assay [2], 150 µM and 348 µM; in assay [3], 125 µM and 263 µM; in assay [4], 69.6 µM and 377 µM; in assay [5], 112 µM and 254 µM; in assay [6], 98.7 µM and 286 µM. The TGI is 106 µM and 128 µM in assay [7]; 90 µM and 369 µM in [8]; 116 µM and 166 µM in [9]; 109 µM and 154 µM in [10].

As for `Clc1cccc(N2CCN(CCN3CCc4c([nH]c5ccccc45)C3c3cccnc3)CC2)c1` (stereo unspecified), the TGI in [1] is > 100 µM; in assay [2] it was 99.7 µM; in assay [3], > 100 µM; in assay [4], > 100 µM; in assay [5], > 100 µM; in [6], > 100 µM. Moreover, the TGI in [7] was 62.9 µM; in assay [8] it was > 100 µM; in assay [9], > 76.4 µM; in assay [10], > 31.6 µM.

In the case of `COc1cc2c(cc1OC)-c1ccc3cc4c(cc3c1N(CCN(C)C)C2)OCO4`, the GI50 in assay [1] is 3.36 µM; in [2], 1.33 µM; in assay [3], 1.15 µM; in assay [4], 1.63 µM; in [5], 0.97 µM; in assay [6], 0.593 µM. For the same compound, the GI50 is 0.352 µM in assay [7], 0.393 µM in assay [8], 0.35 µM in [9] and 0.377 µM in assay [10]. Moreover, the TGI is 16.7 µM in [1]; 13.7 µM in [2]; 9.45 µM in assay [3]; 5.31 µM in assay [4]; 2.47 µM in assay [5]; 2.28 µM in assay [6]. The TGI in [7] is 2.53 µM; in assay [8] it was 2.96 µM; in assay [9] it was 6 µM; in [10], 8.76 µM.
